Assay results from patent publication US7041706B2, “Method for treating crohn's disease” (priority 2002, dated 2006).

Tested on: Crohn's Disease (CD)
Assay: Oral limonene regimen in two patients suffering from Crohn's Disease (case reports, Examples 2 and 3)
Details: for anal bleeding under prior medication regimen: Example 3 subject before limonene, combined regimen of six tablets ASACOL (mesalamine) daily and two 50 mg tablets IMURAN (azathioprine) daily
Protocol: As used herein, “treatment” shall mean temporary or permanent alleviation or elimination of CD symptoms and/or intestinal damage.
A preferred adult dose of limonene is about 400 to 1,000 milligrams, more preferably 1,000 mg, administered once daily, typically for a period of 10 to 30 days. Other dosing regimens, such as every other day and twice weekly regimens, may be desired, depending upon the patient. In fact, it will be appreciated by those of ordinary skill in the art that the amount of limonene, dosing schedule, and duration of treatment may vary depending upon the individual's age, weight, and severity of the CD.
Upon diagnosis, the patient underwent a partial small bowel surgical resection wherein about one foot of intestine and appendix were surgically removed.
To alleviate the symptoms of CD, the subject was taking the following prescriptions and over-the-counter medications: 1 Cortisone injection every six months; 1 tablet of 2.5 mg diphenoxylate/0.025 mg atropine every 8 hours as needed; twelve tablets (2.0 mg each) of IMODIUM (loperamide) every day as needed.
Prior to treatment with the limonene regimen, the subject discontinued taking their prescription and OTC medications for CD except for one cortisone injection in April 2001 and about 1 to 2 tablets of IMODIUM (lopcramide) per month. They began taking 1000 mg d-limonene (98%) on March 2001. […] The subject then began taking 400 mg of d-limonene once a week for two weeks, followed by 400-mg d-limonene twice a week for three weeks. The subject was then put on a regimen of 1000 mg d-limonene take once a week for three weeks, increasing to 1000 mg twice a week for three weeks. After that series, the subject began taking 1000 mg d-limonene every other day for three weeks. The subject continued to take 1000 mg d-limonene twice a week for maintenance.
A subject diagnosed with CD in November 1999 after undergoing a colonoscopy.
The subject began treatment with the inventive limonene method in January 2001, taking 1000 mg of d-limonene daily. […] For maintenance therapy, the patient continued to take three 1000 mg capsules of d-limonene per week.

Row | SMILES | anal bleeding under prior medication regimen | adverse effect on first dosing (Example 2, subject with CD, 1000 mg d-limonene (98%) oral, regimen discontinued immediately) | anal bleeding (Example 2, subject with CD, during treatment, when taking 1000 mg d-limonene) | abdominal pain or cramping (Example 2 subject, during maintenance, 1000 mg d-limonene twice a week) | normal stools per day (Example 2 subject, during maintenance, 1000 mg d-limonene twice a week, about ten stools/day before treatment) | anal bleeding (Example 3, subject with CD, about seven days after start of 1000 mg d-limonene daily) | stools per day (Example 3, subject with CD, about seven days after start of 1000 mg d-limonene daily, ten stools/day before)
1 | Nc1ccc(O)c(C(=O)O)c1 [ASACOL, mesalamine, reference compound] | bleeding ceased for about six to eight months, and then reoccurred |  |  |  |  |  | 
2 | Cn1cnc([N+](=O)[O-])c1Sc1ncnc2nc[nH]c12 [IMURAN, azathioprine, reference compound] | bleeding ceased for about six to eight months, and then reoccurred |  |  |  |  |  | 
3 | C=C(C)[C@H]1CC=C(C)CC1 [d-limonene] |  | severe acid reflux | stopped almost immediately | no abdominal pain or cramping | 1 to 2 times a day | no anal bleeding | 1–2 stools per day
